The subject of the assay is MDA-MB-468 breast. Briefly: growth of human tumour cells (NCI), 48 h.

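Following 48 hours of exposure in 96-well plates, responses at five concentrations were used to interpolate endpoints linearly. GI50 = concentration required for 50% inhibition of growth. TGI denotes the concentration required for complete inhibition of growth.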

Consider `COc1ccc(/C(C)=C(\c2ccc(Cl)cc2)c2ccc(OCCN3CCCCCC3)cc2)cc1F`, for which the GI50 was 2.65 µM and the TGI turned out to be 5.89 µM.
In the case of `NC(N)=N/N=C(/c1ccccc1)c1ccccc1F`, the TGI was 4.94 µM.
With `N#CCC1(n2cc(-c3ncnc4[nH]ccc34)cn2)CN(C2CCN(C(=O)c3ccnc(C(F)(F)F)c3F)CC2)C1`, the GI50 is 44.2 µM and the TGI was over 100 µM.
For the compound `O=C(c1ccccc1)C(Br)C(Br)c1ccccc1` (stereo not given), the GI50 is 2.07 µM and the TGI came out at 4.65 µM.
On the same counts, the results for `C#CC#CC#CC#CC#CC#CC#CC#CC[C@@H]1OC[C@@H](COC(=O)O[C@@H](C(=O)O[C@H]2C[C@@]3(O)[C@@H](OC(=O)c4ccccc4)[C@@H]4[C@]5(OC(C)=O)CO[C@@H]5C[C@H](O)[C@@]4(C)C(=O)[C@H](OC(C)=O)C(=C2C)C3(C)C)[C@@H](NC(=O)c2ccccc2)c2ccccc2)O1` are 0.108 µM and 0.56 µM.
On the same counts, the results for `Clc1ccc2c(NCCCN3CCN(c4nc(N5CCOCC5)nc5ccccc45)CC3)ccnc2c1` are 1.83 µM and 3.66 µM.
As to `COc1cc(/C=C\c2cc(OC)c(OC)c(OC)c2)cc(NS(=O)(=O)c2ccc(Cl)cc2)c1OC`, the GI50 was 0.271 µM and the TGI is 19.4 µM.
As for `N#CC(NC(=O)CCl)=C(Cl)Cl`, the GI50 was 1.33 µM and the TGI is 3.48 µM.

The values above are taken from PubChem BioAssay (NCI).
